Test results as given in US6355608B1, “Detergent composition” (Shiseido Co., Ltd., priority 1998, dated 2002).

Columns and labels:
[1] = Foaming test with the shaking method; type: physicochemical
Procedure: (§1) 0.5 wt % of each sample in Table 1 was dissolved in ion exchanged water with 70 ppm calcium chloride already dissolved in it. […] This solution was kept at 30° C. put into a Nessler's tube with an inner diameter of 3 cm and a height of 20 cm equipped with a sliding plug, and then tilted 90 degrees every second using a pendulum type shaker. After one minute, the sample was taken out of the shaker and the foam height, the foam film thickness and the foam density were measured. The time required for the foam height to be reduced to a half of the original height was also measured. The foam film thickness was measured by taking a photograph of the foam using a microscope at 100 times magnification and calculating the average value on the photograph. The foam density was obtained by sampling 10 ml of the foam and measuring its weight.
as §1, with “Table 6” for “Table 1”, “30° C.,” for “30° C.”
as §1, with “Table 11” for “Table 1”, “30° C.,” for “30° C.”
as §1, with “sample” for “sample in Table 1”, “C.,” for “C.”, “weight. […]” for “weight.”

[2] = Lathering/foaming test: foam volume in a mixer with artificial dirt; type: physicochemical; conditions: mixtures of N-methyl taurate laurate and sodium laurate, total 100 mmol/L; 400 ml with 2g artificial dirt, stirred 60 seconds

| Molecule | Foaming (in words) ([1]; pH 7) | Foaming (in words) ([1]; pH 4) | further results |
| --- | --- | --- | --- |
| Potassium hydroxylaurate [Control sample 2] | harder to foam | – | – |
| CNCCS(=O)(=O)O [N-methyl taurine] | – | – | Lathering/foaming ability (foam volume, FIG. 6) [2]: good lathering/foaming ability |
| Sodium hydroxylaurate [Control sample 1] | harder to foam | – | – |
| Sodium hydroxylauryl ether carboxylate [Control sample 1] | – | harder to foam | – |
| Magnesium laurate [Control sample 3] | harder to foam | – | – |
| Potassium hydroxylauryl ether carboxylate [Control sample 2] | – | harder to foam | – |
